The test system of assay [1] is rats. The settings on record: rat, in vivo.
Assay [2] has as its system rats. In words: Flinches in rats after intraplantar injection of capsaicin. Format: in vivo, rat.

For `CC(C)(C)c1ccc(NC(=O)N2CCN(c3ncccc3Cl)CC2)cc1` [BCTC, N-(4-Tertiarybutylphenyl)-4-(3-cholorphyridin-2-yl)tetrahydropyrazine-1(2H)-carbox-amide], the “reduction of induced pain effect” value in assay [1] was found to be 79%. Also, in assay [1] (sc), the “dose needed to decrease half of the number of flinches induced by the venom” value lay within 10 to 40 mg/kg and the “dose of maximal analgesic effect” value is listed as 40 mg/kg. In assay [2] (40 mg/kg BCTC s.c. one hour before capsaicin, 4 minutes, p<0.05, n=6), the “number of flinches (mean) after intraplantar capsaicin following BCTC conditioning” value was found to be 4.2.
In the case of `COc1cc(CNC(=O)CCCC/C=C/C(C)C)ccc1O` [capsaicin], the “number of flinches (mean) after intraplantar capsaicin alone” value in assay [2] (10 μg capsaicin intraplantar, 4 minutes observation, n=6) is 76.0.

Source of the values: patent publication US20100234454A1 (priority 2006, published 2010).
